For the assay, the system named is mice fed a high-fat diet deficient in choline and methionine. Nature of the assay: Mouse on a methionine/choline deficient high-fat diet (MCD-HFD). In kind it is in vivo. Particulars: for macrophage numbers, inflammatory infiltrate by F4/80 immunohistochemistry: statistically significant; for levels of mRNA expression for all markers of liver fibrosis / levels of mRNA expression for all markers of liver inflammation: vs control Group II. The protocol:
The study was performed in mice fed a high-fat diet deficient in choline and methionine (MCD-HFD or MCD diet), a model that reproduces the clinical manifestations of human steatohepatitis and fibrosis in mice. These mice received the sGC stimulator Compound B prophylactically (at two doses, 1 and 3 mg/kg/day in the food), starting at the same time as the start of the administration of the high-fat diet deficient in choline/methionine, and before animals started manifesting clinical signs of steatohepatitis.
The prophylactic treatment with Compound B proceeded for a total of 9 weeks simultaneously with the high-fat diet deficient in choline/methionine administration. At the end of the treatment, the degree of inflammation was assessed in the liver by determining levels of gene expression for IL-6, TNFα, IL-10, MCP-1β, IL-1 and IL-Ira, by real-time PCR. Inflammation levels were also determined by assessing inflammatory infiltrate by F4/80 immunohistochemistry, and necroinflammation was assessed by hematoxylin-eosin staining. Liver fibrosis was determined by measuring levels of gene expression for collagen type I and II, MMP-2, TIMP-1 and TGFβ1 at the mRNA level. Histological analysis was carried out of tissue sections stained with Masson's trichrome and Sirius Red.
Group I (n=5): Chow Control group received a matching sucrose diet equivalent to the high-fat diet (HFD) for 9 weeks.
Group II (n=15): Choline/methionine deficient HFD Control group (MCD control group) received a Choline/methionine deficient HFD diet for 9 weeks.
Group III (n=10): Choline/methionine deficient HFD for 9 weeks supplemented with Compound B dosed in food (1 mg/kg body weight/day). (IW1 group)
Group IV (n=10): Choline/methionine deficient HFD for 9 weeks supplemented with Compound B dosed in food (3 mg/kg body weight/day). (IW3 group)
After treatment, animals were sacrificed and liver and blood samples were collected. The effects of the sGC stimulator on liver weight, steatosis, inflammation and fibrosis were evaluated as follows:
Total RNA was obtained with the RNAqueous kit. RNA concentrations were assessed in a UV-spectrophotometer and the RNA's integrity tested on a 6000 LabChip in a 2100 Bioanalyzer (Agilent Technologies, Palo Alto, Calif.). First strand cDNA synthesis was performed by incubating 1 μg of total RNA with 2.5 μl of 10×RT buffer, 1 μl of 25×dNTPs, 2.5 μl of 10× Primers and 1.25 μl of reverse transcriptase (25 μl final volume) for 10 minutes at 25° C. following 2 hours at 37° C. in a ABI thermal cycler. Ready-to-use primer and probe sets pre-developed by Applied Biosystems (TaqMan Gene Expression Assays) were used to quantify gene expression using R-actin as an endogenous control. Briefly, PCR reactions were performed in duplicate using the Universal TaqMan 2×PCR mastermix in a volume of 20 μl containing 1.25 μl cDNA. Real-time quantitative PCR was performed with an ABI Prism 7900 Sequence Detection System (Applied Biosystems) using the fluorescent TaqMan methodology. Real time PCR results were analyzed with the Sequence Detector Software version 2.1 (Applied Biosystems) and relative quantitation of gene expression was performed using the 2-ΔΔ Ct method. (User Bulletin #2; http://docs.appliedbiosystems.com/pebiodocs/04303859.pdf).
Tissue samples fixed in 10% formalin were embedded in paraffin, cut into 5 μm sections, stained with H&E and analyzed by a registered pathologist unaware of the treatments. Tissue sections were incubated for 10 minutes in 0.5% thiosemicarbazide and stained in 0.1% Sirius Red F3B in saturated picric acid for 1 hour, and subsequently washed with an acetic acid solution (0.5%). Masson's trichrome staining was performed at the Pathology Department of the Hospital Clinic, Barcelona, Spain. […]

The mark [1] stands for this setting: 3 mg/kg in food, 9 weeks (Group IV) vs control Group II.
The mark [2] stands for this setting: Group III (1 mg/kg/day), 9 weeks.
The mark [3] stands for this setting: Group IV (3 mg/kg/day), 9 weeks.

In the case of `OC(CNc1nc(-c2cc(-c3ccon3)n(Cc3ccccc3F)n2)ncc1F)(C(F)(F)F)C(F)(F)F` [Compound B], the “Total NAS” value is, setting by setting: (1 mg/kg (Group III) vs control group II) “reduced”; (3 mg/kg (Group IV) vs control group II) “reduced”. For the same molecule, the “fibrosis as detected using Picrosirius Red staining” value is “significantly reduced” (1 mg/kg in food, 9 weeks (Group III)) and “significantly reduced” (3 mg/kg in food, 9 weeks (Group IV)). Besides, the “liver tissue weight versus total body weight ratio” value under setting [1] is recorded as “statistically significant reduction”. Besides, the “percentage of white adipose tissue in the liver” value under setting [1] was “statistically significant reduction”. Further, the “reduction of fibrosis by analysis of trichrome stain and α-SMA deposition” value (1 and 3 mg/kg in food, 9 weeks, FIG. 4) is given as “confirmed”. Further, the “macrophage numbers, inflammatory infiltrate by F4/80 immunohistochemistry” value reads like this: (Group III (1 mg/kg) vs control group II) “decrease”; (Group IV (3 mg/kg) vs control group II) “decrease”. Besides, the “levels of mRNA expression for all markers of liver fibrosis” value is, setting by setting: under setting [2], “reduced in a statistically significant manner”; under setting [3], “reduced in a statistically significant manner”. Besides, the “levels of mRNA expression for all markers of liver inflammation” value is “reduced in a statistically significant manner” under setting [2] and “reduced in a statistically significant manner” under setting [3].

Source of the values: patent publication US11357777B2, “Use of sGC stimulators for the treatment of nonalcoholic steatohepatitis (NASH)” (Cyclerion Therapeutics, Inc., priority 2016, dated 2022).
